In patent publication US20080287398A1, “COLD MENTHOL RECEPTOR-1 ANTAGONISTS” (priority 2007, published 2008):
Values joined by “and” are separate entries in the source; they are usually repeats but may differ in a detail not shown here. Equal values may be shown once. Read-outs that look alike come from different tables or passages of the source.

Target: T1, canine TRPM8 (Canis lupus familiaris, UniProt Q1A7N1)
T1 construct: expressed in transfected cells
Test: In vitro canine TRPM8 functional assay (Ca2+-sensitive dye, FLIPR/FDSS, icilin activation)
Format: cell-based
Details: HEK293 cells expressing canine TRPM8, icilin activation; for % I (0.5 μM): 0.5 μM compound; for IC50: eight-point dose-response; for % I (1 μM): 1 μM compound
In short: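 HEK293 cells stably expressing canine TRPM8, loaded with Calcium 3 dye, preincubated with compound for 5 min before icilin at a concentration giving ~80% maximal response. Ca2+ fluorescence by FLIPR or FDSS; basal-subtracted, normalized to % maximal response, quadruplicate wells, sigmoidal fit for EC50/IC50.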

[1] = HEK293, read-out: % I (1 μM), 1 μM compound

T1 sequence (Q1A7N1 1-1104): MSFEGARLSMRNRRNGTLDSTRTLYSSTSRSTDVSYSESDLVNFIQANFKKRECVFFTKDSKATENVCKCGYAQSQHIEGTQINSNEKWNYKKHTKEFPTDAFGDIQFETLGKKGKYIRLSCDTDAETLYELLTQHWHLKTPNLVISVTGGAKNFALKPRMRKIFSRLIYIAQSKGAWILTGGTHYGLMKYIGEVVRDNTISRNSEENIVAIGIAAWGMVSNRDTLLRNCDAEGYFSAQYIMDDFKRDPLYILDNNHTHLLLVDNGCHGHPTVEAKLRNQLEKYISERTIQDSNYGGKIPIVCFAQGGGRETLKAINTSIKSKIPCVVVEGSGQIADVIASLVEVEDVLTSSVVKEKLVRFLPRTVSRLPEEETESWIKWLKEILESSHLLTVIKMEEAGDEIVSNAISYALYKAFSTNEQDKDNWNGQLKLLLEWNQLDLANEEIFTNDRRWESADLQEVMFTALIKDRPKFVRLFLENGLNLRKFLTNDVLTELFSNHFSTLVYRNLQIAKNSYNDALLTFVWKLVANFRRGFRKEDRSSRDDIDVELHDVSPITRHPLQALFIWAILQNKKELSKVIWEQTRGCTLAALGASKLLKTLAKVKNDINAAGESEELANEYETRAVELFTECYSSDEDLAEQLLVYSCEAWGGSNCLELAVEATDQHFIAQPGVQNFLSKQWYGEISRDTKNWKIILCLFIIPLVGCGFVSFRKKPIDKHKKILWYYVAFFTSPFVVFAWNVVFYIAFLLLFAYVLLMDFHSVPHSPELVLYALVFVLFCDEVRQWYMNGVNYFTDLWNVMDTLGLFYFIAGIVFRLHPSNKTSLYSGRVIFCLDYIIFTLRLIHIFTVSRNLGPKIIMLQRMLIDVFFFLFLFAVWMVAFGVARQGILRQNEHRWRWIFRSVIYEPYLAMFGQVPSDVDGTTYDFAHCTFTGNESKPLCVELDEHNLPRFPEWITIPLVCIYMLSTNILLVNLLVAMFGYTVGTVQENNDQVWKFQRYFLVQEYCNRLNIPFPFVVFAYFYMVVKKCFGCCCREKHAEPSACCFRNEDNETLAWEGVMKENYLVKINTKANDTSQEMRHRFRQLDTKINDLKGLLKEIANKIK

Molecule	% I (0.5 μM)	IC50 (read-out: IC50)	% I (1 μM)	further results
CSc1ccc(CC(c2sc3ccccc3c2Br)P(=O)(OC(C)C)OC(C)C)cc1 (centres unmarked) [Cpd 251]	103%	0.045 µM	–	–
CCOP(=O)(OCC)C(Cc1cccc(OC)c1)c1sc2ccccc2c1Br (centres unmarked) [Cpd 314]	103% and 104%	0.029 µM and 0.021 µM	–	–
CCOP(=O)(OCC)C(Cc1cccc(-n2cccc2)c1)c1sc2ccccc2c1Br (centres unmarked) [Cpd 310]	102%	0.042 µM	–	–
CC(C)OP(=O)(OC(C)C)C(Cc1cccc(C(F)(F)F)c1)c1cc2ccccc2s1 (centres unmarked) [Cpd 69]	–	0.35 µM	99%	–
Cc1c(C(Cc2ccc(F)c(F)c2)P(=O)(OC(C)C)OC(C)C)oc2cccc(F)c12 (centres unmarked) [Cpd 202]	–	0.053 µM	103%	–
CC(C)OP(=O)(OC(C)C)C(Cc1ccc(F)c(C(F)(F)F)c1)c1c(Br)c2ccccc2n1S(C)(=O)=O (centres unmarked) [Cpd 330, [1-(3-Bromo-1-methanesulfonly-1H-indol-2-yl)-2-(4-fluoro-3-trifluoromethyl-phenyl)-ethyl]-phosphonic acid diisopropyl ester]	–	0.137 µM	–	–
CCOP(=O)(OCC)C(Cc1ccc(F)cc1Cl)c1sc2ccccc2c1C (centres unmarked) [Cpd 27]	–	0.11 µM	99%	–
CCOP(=O)(OCC)C(Cc1ccc(Cl)c(Cl)c1)c1sc2ccccc2c1Br (centres unmarked) [Cpd 24, [1-(3-Bromo-benzo[b]thiophen-2-yl)-2-(3,4-dichloro-phenyl)-ethyl]-phosphonic acid diethyl ester]	–	–	–	inhibition at 1 µM [1]: 100%; IC50 (IC50 (μM)): 0.107 µM
CC(C)OP(=O)(OC(C)C)C(Cc1ccc(F)c(F)c1)c1cc2ccccc2o1 (centres unmarked) [Cpd 120]	–	0.39 µM	102%	–
COc1ccc(CC(c2sc3ccccc3c2Br)P(=O)(OC(C)C)OC(C)C)c(F)c1 (racemic) [Cpd 163]	103%	0.02 µM	–	–
CSc1ccc(CC(c2sc3ccccc3c2Cl)P(=O)(OC(C)C)OC(C)C)cc1 (centres unmarked) [Cpd 256]	103%	0.056 µM	–	–
CCOP(=O)(OCC)C(Cc1ccccc1O)c1sc2ccccc2c1Br (centres unmarked) [Cpd 323]	104%	0.009 µM	–	–
CCOP(=O)(OCC)C(Cc1ccc(F)c(F)c1)c1sc2cccc(F)c2c1Br (racemic) [Cpd 224]	102%	0.044 µM	–	–
CCOP(=O)(OCC)C(Cc1ccc(C(F)(F)F)cc1)c1cc2ccccc2s1 (centres unmarked) [Cpd 68]	–	0.34 µM	96%	–
CCOP(=O)(OCC)C(Cc1ccc(C#N)cc1)c1sc2ccccc2c1Br (centres unmarked) [Cpd 312]	102%	0.089 µM	–	–
CC(C)OP(=O)(OC(C)C)C(Cc1ccc(OC(F)(F)F)cc1)c1sc2ccccc2c1Cl (centres unmarked) [Cpd 187]	103%	0.062 µM	–	–
CCOP(=O)(OCC)C(Cc1ccccc1C(F)(F)F)c1sc2ccccc2c1C (centres unmarked) [Cpd 59]	–	0.27 µM	99%	–
CCOP(=O)(OCC)C(Cc1c(F)c(F)c(OC)c(F)c1F)c1sc2ccccc2c1Br (racemic) [Cpd 160]	87%	0.06 µM	–	–
CCOP(=O)(OCC)C(Cc1cccc(Cl)c1Cl)c1sc2ccccc2c1C (centres unmarked) [Cpd 35]	–	0.125 µM	100%	–
CCOP(=O)(OCC)C(Cc1cc(Cl)ccc1F)c1sc2ccccc2c1Br (racemic) [Cpd 307]	103%	0.026 µM	–	–

Molecule	% I (0.5 μM)	IC50 (read-out: IC50)	% I (1 μM)	further results
COc1cccc(CC(c2sc3ccccc3c2Br)P(=O)(OC(C)C)OC(C)C)c1 (centres unmarked) [Cpd 317]	102%	0.021 µM	–	–
CCOP(=O)(OCC)C(Cc1c(Cl)cccc1Cl)c1sc2ccccc2c1C (centres unmarked) [Cpd 54]	–	0.23 µM	100%	–
CCOP(=O)(OCC)C(Cc1cc(C(F)(F)F)cc(C(F)(F)F)c1)c1cc2ccccc2s1 (centres unmarked) [Cpd 96]	–	0.64 µM	92%	–
CCOP(=O)(OCC)C(Cc1ccc(F)c(C(F)(F)F)c1)c1sc2ccccc2c1Cl (racemic) [Cpd 294]	103%	0.118 µM	–	–
(R)-[1-(3-Bromo-benzo[b]thiophen-2-yl)-2-(4-trifluoromethoxy-phenyl)-ethyl]-phosphonic acid diisopropyl ester [Cpd 237]	96% and 70%	–	–	–
CC(C)OP(=O)(OC(C)C)C(Cc1cccc(OC(F)(F)F)c1)c1sc2ccccc2c1Cl (racemic) [Cpd 301]	102%	0.054 µM	–	–
CCOP(=O)(OCC)C(Cc1cc(O)cc(O)c1)c1sc2ccccc2c1Br (centres unmarked) [Cpd 322]	45%	–	–	–
CCOP(=O)(OCC)C(Cc1cccc(C(F)(F)F)c1F)c1sc2ccccc2c1Br (centres unmarked) [Cpd 142]	101%	0.054 µM	–	–
CC(C)OP(=O)(OC(C)C)C(Cc1cccc(Cl)c1F)c1sc2ccccc2c1Br (centres unmarked) [Cpd 267]	–	0.047 µM and 0.029 µM	101% and 102%	–
CCOP(=O)(OCC)C(Cc1ccccc1C(F)(F)F)c1sc2ccccc2c1Br (centres unmarked) [Cpd 260]	103%	0.077 µM and 0.056 µM	–	–
CC(C)OP(=O)(OC(C)C)C(Cc1cccc(F)c1)c1cc2ccccc2s1 (centres unmarked) [Cpd 133]	–	0.34 µM	101%	–
CC(C)OP(=O)(OC(C)C)C(Cc1ccc(F)cc1C(F)(F)F)c1sc2ccccc2c1Cl (centres unmarked) [Cpd 254]	103%	0.079 µM	–	–
CCOP(=O)(OCC)C(Cc1ccc(F)c(F)c1)c1sc2cccc(Cl)c2c1C (centres unmarked) [Cpd 65, [1-(4-Chloro-3-methyl-benzo[b]thiophen-2-yl)-2-(3,4-difluoro-phenyl)-ethyl]-phosphonic acid diethyl ester]	–	–	–	inhibition at 1 µM [1]: 100%; IC50 (IC50 (μM)): 0.3 µM
CCOP(=O)(OCC)C(Cc1cc2c(cc1Cl)OCO2)c1cc2ccccc2s1 (centres unmarked) [Cpd 112]	–	–	42%	–
CCOP(=O)(OCC)C(Cc1ccc(O)c(F)c1)c1sc2ccccc2c1Br (racemic) [Cpd 226]	34%	–	–	–
CC(C)OP(=O)(OC(C)C)C(Cc1ccccc1F)c1sc2cc(Br)ccc2c1Br (centres unmarked) [Cpd 199]	–	–	81%	–
CCOP(=O)(OCC)C(Cc1ccccc1)c1cc2ccccc2s1 (centres unmarked) [Cpd 74]	–	0.38 µM	92%	–
CC(C)OP(=O)(OC(C)C)C(Cc1ccc(F)c(F)c1)c1nc2ccccc2s1 (centres unmarked) [Cpd 25, [1-Benzothiazol-2-yl-2-(3,4-difluoro-phenyl)-ethyl]-phosphonic acid diisopropyl ester]	–	0.12 µM and 0.19 µM	–	inhibition at 1 µM (HEK293, 1 μM compound, read-out: % I (1 μM)): 101%
CCOP(=O)(OCC)C(Cc1cc(C(F)(F)F)cc(Cl)c1F)c1sc2ccccc2c1C (centres unmarked) [Cpd 73]	–	0.36 µM	100%	–
CCOP(=O)(OCC)C(Cc1cccc(Cl)c1Cl)c1cc2ccccc2s1 (centres unmarked) [Cpd 100]	–	0.73 µM	82%	–

Molecule	% I (0.5 μM)	IC50 (read-out: IC50)	% I (1 μM)	further results
[2-(3,4-Difluoro-phenyl)-1-(3-methyl-benzo[b]thiophene-2-yl)-ethyl]-methyl-phosphonic acid ethyl ester [Cpd 106]	–	1.26 µM	32%	–
CC(C)OP(=O)(OC(C)C)C(Cc1ccccc1F)c1sc2cccc(Br)c2c1Br (centres unmarked) [Cpd 198]	–	0.357 µM	98%	–
CCOP(=O)(OCC)C(Cc1ccc(C(F)(F)F)cc1)c1sc2ccccc2c1Br (racemic) [Cpd 154]	103%	0.027 µM	–	–
CCOP(=O)(OCC)C(Cc1ccc(F)c(F)c1)c1sc2ccccc2c1-c1ccccc1F (racemic) [Cpd 216]	100%	0.126 µM	–	–
CC(C)OP(=O)(OC(C)C)C(Cc1cc(F)cc(Cl)c1)c1sc2ccccc2c1Cl (centres unmarked) [Cpd 186]	104%	0.051 µM	–	–
CC(C)OP(=O)(OC(C)C)C(Cc1ccc(S(C)(=O)=O)cc1)c1sc2ccccc2c1Br (centres unmarked) [Cpd 252]	44%	–	–	–
CC(C)OP(=O)(OC(C)C)C(Cc1ccccc1C(F)(F)F)c1sc2ccccc2c1Cl (racemic) [Cpd 173]	103%	0.14 µM	–	–
CCOP(=O)(OCC)C(Cc1ccc(F)c(O)c1)c1sc2ccccc2c1Br (centres unmarked) [Cpd 225, [1-(3-Bromo-benzo[b]thiophen-2-yl)-2-(4-fluoro-3-hydroxy-phenyl)-ethyl]-phosphonic acid diethyl ester]	–	–	–	inhibition at 0.5 µM (HEK293, read-out: % I (0.5 μM), 0.5 μM compound): 103%; IC50 (IC50 (μM)): 0.027 µM
CC(C)OP(=O)(OC(C)C)C(Cc1cc(O)c(Cl)cc1F)c1sc2ccccc2c1Br (racemic) [Cpd 232]	99%	0.063 µM	–	–
CCOP(=O)(OCC)C(Cc1cccc(C(F)(F)F)c1F)c1sc2ccccc2c1Cl (racemic) [Cpd 281]	102%	0.131 µM	–	–
CCOP(=O)(OCC)C(Cc1ccc(C(F)(F)F)c(F)c1)c1sc2ccccc2c1Cl (centres unmarked) [Cpd 273]	103%	0.116 µM	–	–
CCOP(=O)(OCC)C(Cc1ccc(F)c(F)c1)c1cc2cccnc2s1 (centres unmarked) [Cpd 131]	–	–	28%	–
CC(C)OP(=O)(OC(C)C)C(Cc1cccc(Br)c1)c1sc2ccccc2c1Cl (centres unmarked) [Cpd 182]	104%	0.075 µM	–	–
CC(C)OP(=O)(OC(C)C)C(Cc1ccc(F)c(C(F)(F)F)c1)c1sc2ccccc2c1Cl (centres unmarked) [Cpd 188]	103%	0.064 µM	–	–
CCOP(=O)(OCC)C(Cc1cccc(F)c1F)c1sc2ccccc2c1C (centres unmarked) [Cpd 10]	–	0.043 µM	100%	–
CC(C)OP(=O)(OC(C)C)C(Cc1cc(C(F)(F)F)cc(C(F)(F)F)c1)c1sc2ccccc2c1Cl (racemic) [Cpd 171]	95%	0.221 µM	–	–
CCOP(=O)(OCC)C(Cc1ccc(O)cc1)c1sc2ccccc2c1Br (centres unmarked) [Cpd 324]	54%	–	–	–
CC(C)OP(=O)(OC(C)C)C(Cc1cccc(C(F)(F)F)c1Cl)c1sc2ccccc2c1Cl (centres unmarked) [Cpd 177]	96%	0.139 µM	–	–
